Results taken from publication PMC7355430, “Imunofan—RDKVYR Peptide—Stimulates Skin Cell Proliferation and Promotes Tissue Repair” (Molecules, 2020).
Peptide text beside a SMILES is read from it.

Experiments:
bovine albumin = bovine albumin (Bos taurus, UniProt P02769); experiment: Affinity test on albumin-Sepharose column; type: binding; conditions: ammonium hydrogen carbonate pH 7.4, 2 h, 25 °C, elution 0.1% TFA, ESI-IT-TOF MS of fractions
Description: Immobilization of protein in a microcolumn, and affinity tests, were performed as described previously by Spodzieja et al.. The IM peptide was added onto an albumin-Sepharose column equilibrated in ammonium hydrogen carbonate, pH 7.4, and incubated for 2 h at 25 °C with gentle shaking. After 2 h, the column was washed with 100 mL of ammonium hydrogen carbonate, collecting the first and last milliliter of the solution (supernatant and last wash fraction). The albumin-peptide complex was dissociated by incubation for 15 min in 0.1% TFA, with gentle shaking. The procedure was repeated twice, and the elution fraction was collected each time. All fractions were lyophilized and analyzed by mass spectrometry (ESI-IT-TOF, Kyoto, Shimadzu Japan).

46BR.1N fibroblasts = experiment: XTT proliferation assay; type: cell-based, human; conditions: 48 h, 0.1–100 µg/mL, serum-free DMEM, n=16
Description: (§1) XTT assay, which is widely used in the measurement of the effect of bioactive compounds (e.g., cytokines, growth factors, and peptides) on cell proliferation was used for the evaluation of IM effect on skin cells and ASCs proliferation. Cells were seeded at a density of 5000 cells per well into 96-well plates (BD, cat.no. 353872), in a medium supplemented with 10% of FBS, which after 24 h was exchanged for a serum-free DMEM medium containing appropriate concentrations of the IM peptide. IM solutions used in the experiments were prepared with double distilled water under sterile conditions. The cells were incubated with the peptide for 48 h or 72 h, then XTT reagent was added and the plates were incubated at 37 °C for 4 h in the presence of 5% CO2, following manufacturer’s instructions (Sigma-Aldrich, St. Louis, MO, USA). Plates were then read using a standard plate reader at OD 490 nm. Cell proliferation was normalized with respect to an untreated control (100%).

ASCs [1] = experiment: XTT proliferation assay; type: cell-based, human; conditions: 48 h, 1.0 and 10 µg/mL, serum-free DMEM, n=16
Description: as §1

HaCaT keratinocytes [2] = experiment: XTT proliferation assay; type: cell-based, human
Description: as §1

ASCs [3] = experiment: Migration assay, ibidi culture inserts; type: cell-based, human; conditions: 0.1 µg/mL, 24 h; n=16
Description: (§2) The effect of IM on cell migration after 24 h was determined using ibidi culture inserts (ibidi, Cat. No. 81176, Gräfelfing, Germany). Cells were seeded in culture inserts, at a density of 30,000 per well, in appropriate medium supplemented with 10% FBS, which was changed to serum-free DMEM after 24 h. Mitomycin C (5 μg/mL) was added for 2 h to block cell proliferation. The medium was then changed, again, and cells were stimulated with an appropriate concentration of IM. After 24 h the cells were fixed with 3.7% paraformaldehyde, stained with 0.05% crystal violet, and the effect was measured with a phase-contrast fluorescent microscope (Zeiss, Oberkochen, Germany) and the surface areas were counted with Imaging Software NIS-Element Basic Research program.

HaCaT keratinocytes [4] = experiment: Migration assay, ibidi culture inserts; type: cell-based, human; conditions: 0.1 and 1 µg/mL, 24 h, mitomycin C pre-treatment, serum-free; n=12 (Figure S7A)
Description: as §2

skin cells = experiment: Migration assay, ibidi culture inserts; type: cell-based, human; conditions: 0.1 and 1 µg/mL, 24 h
Description: as §2

HaCaT keratinocytes [5] = experiment: Chemotaxis assay, ThinCert inserts; type: cell-based, human; conditions: 0.1 and 1 µg/mL, 24 h, serum-free; n=12 (Figure S7B)
Description: The effect of IM on cell chemotaxis was assessed with ThinCert cell culture inserts (8 μm, Greiner Bio-One, Kremsmünster, Austria). Cells were starved overnight in serum-free high-glucose DMEM and then seeded on inserts placed in a 24-well plate, at a density of 100,000 cells, in serum-free medium. Culture medium with appropriate concentrations of IM was then added to the wells of the plate and incubated for 24 h. The cells were stained with 8 μM Calcein-AM (BD Pharmingen), then migratory cells were detached with typsin-EDTA (Sigma-Aldrich, St. Louis, MO, USA). Detached cells were transferred to another plate and read with a fluorescence plate reader at an excitation wavelength of 485 nm and an emission wavelength of 520 nm.

basophils = experiment: Basophil activation test (BAT); type: cell-based, human; conditions: 0.1 µg/mL, whole blood of healthy volunteers, Flow CAST highsens; cut-off 5%; 7 independent experiments
Description: The commercially available test Flow CAST® highsens (Bühlmann Laboratories, Schönenbuch, Switzerland) was used to perform BAT test on blood samples collected from healthy volunteers, who were not suffering from allergy, within 24 h of collection, according to the manufacturer’s protocol. Then, 100 µL of blood was incubated and IM peptide was added to the wells at a final concentration of 0.1 µg/mL. The cells were then stained with fluorochrome-stained monoclonal antibodies (anti-CD63, -CD203c, -CCR3) and incubated for 15 min at 37 °C. Then, erythrocyte lysis was performed, the cells were washed and analyzed by flow cytometry (BD FACSCanto II, San Jose, CA, USA). Each sample was accompanied by its own negative and positive control (anti-FcεRI mAb and fMLP).

patients = test system: patients; parameters: method as in PMID 18475748; conditions: subcutaneous injection in patients, response to diphtheria toxoid vaccination; cited from earlier work

Sequence of bovine albumin (P02769 25-607): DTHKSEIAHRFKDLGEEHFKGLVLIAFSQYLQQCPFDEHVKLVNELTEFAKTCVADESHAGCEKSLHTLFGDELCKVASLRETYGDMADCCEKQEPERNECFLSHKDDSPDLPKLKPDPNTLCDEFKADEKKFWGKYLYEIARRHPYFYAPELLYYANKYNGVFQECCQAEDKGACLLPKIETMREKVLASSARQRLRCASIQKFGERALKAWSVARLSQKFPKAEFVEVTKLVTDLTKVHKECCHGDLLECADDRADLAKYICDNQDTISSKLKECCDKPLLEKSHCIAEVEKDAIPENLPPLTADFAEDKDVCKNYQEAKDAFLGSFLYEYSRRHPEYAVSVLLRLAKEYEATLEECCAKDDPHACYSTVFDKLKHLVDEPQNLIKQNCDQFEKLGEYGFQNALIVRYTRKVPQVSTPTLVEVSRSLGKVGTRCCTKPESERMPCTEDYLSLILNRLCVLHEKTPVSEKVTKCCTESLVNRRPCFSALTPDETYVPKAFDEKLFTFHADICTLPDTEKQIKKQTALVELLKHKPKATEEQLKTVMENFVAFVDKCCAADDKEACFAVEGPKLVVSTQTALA

SMILES: CC(C)[C@H](NC(=O)[C@H](CCCCN)NC(=O)[C@H](CC(=O)O)NC(=O)[C@@H](N)CCCNC(=N)N)C(=O)N[C@@H](Cc1ccc(O)cc1)C(=O)N[C@@H](CCCNC(=N)N)C(=O)O [IM, H-Arg-Asp-Lys-Val-Tyr-Arg-OH] (H-RDKVYR-OH)
- interaction with albumin (bovine albumin): interacted with bovine albumin
- increase in proliferation compared to the control (46BR.1N fibroblasts): 20–40%
- increase in proliferation (ASCs [1]): 10%
- increase in cell proliferation (HaCaT keratinocytes [2]; 48 h, 0.1 and 1 µg/mL, serum-free DMEM, XTT, n=16): 20–50%
- increase in proliferation of keratinocytes (abstract) (HaCaT keratinocytes [2]; as summarised in the abstract, p < 0.05): 20–50%
- promigratory effect compared to the control (ASCs [3]): 10–15%
- inhibition of migration compared to the control (HaCaT keratinocytes [4]): 5–10%
- stimulation of migration of skin cells (skin cells): does not stimulate migration
- inhibition of chemotaxis with respect to the control (HaCaT keratinocytes [5]): 10–20%
- level of degranulated cells (basophil activation) (basophils): below 5%
- levels of interleukin-6 (IL-6) and tumor necrosis factor (TNF) (patients): decreasing levels
